Measurements taken from article PMC9942528 (Journal of medicinal chemistry, 2022).
Like-named read-outs stand apart in the source and are kept apart here. Marks after values point to notes of the source that are not given here. Values belong to the compound of their own block, whether it stands above or below them.

How the values were obtained:
[1] = tested on: mouse microglial N9 cells; test: Cytotoxicity, MTT assay in N9 cells; type: cell-based
[2] = Stability assay in rat liver microsomes; type: in vitro ADME; details: for less stable than (R)- and (S)-11b, (R)- and (S)-11c, and 2: recovery after 30 min; for less stable than (R)- and (S)-11b, (R)- and (S)-11c, and 2 / Metabolic stability, % after 30 min incubation: rat microsomes; for Metabolic stability, % after 30 min incubation: 10 μM, parent remaining; for microsomal CLint at 2 h, 10 µM: pH 7.4
[3] = tested on: APP/PS1 mouse model; details: systemic administration, ref [28]; cited from earlier work
[4] = tested on: rat primary microglial cells; details: rat primary microglial cultures stimulated with LPS; ref [25]; cited from earlier work
[5] = tested on: mouse hippocampal organotypic cultures; details: OHCs stimulated with LPS, pre-treatment; ref [27]; cited from earlier work
[6] = biological target: T1, human FPR2 (Homo sapiens, UniProt P25090); test: Ca2+ mobilization; details: for increase in FPR2 potency as compared to 2: ratio of EC50 values
T1 sequence (P25090 1-351): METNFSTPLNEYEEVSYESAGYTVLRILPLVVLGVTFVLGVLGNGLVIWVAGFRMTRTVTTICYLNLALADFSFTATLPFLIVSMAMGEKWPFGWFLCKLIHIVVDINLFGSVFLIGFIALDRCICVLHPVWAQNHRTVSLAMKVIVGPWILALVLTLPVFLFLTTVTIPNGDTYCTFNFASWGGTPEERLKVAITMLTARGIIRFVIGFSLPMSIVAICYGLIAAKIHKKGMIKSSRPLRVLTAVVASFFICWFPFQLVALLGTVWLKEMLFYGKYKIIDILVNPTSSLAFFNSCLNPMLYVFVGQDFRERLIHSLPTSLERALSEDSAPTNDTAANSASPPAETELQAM

[7] = rat microsomes; ref [25]; cited from earlier work
[8] = hCMEC/D3 cells; ref [25]; cited from earlier work
[9] = tested on: murine N9 cells; test: ELISA of TNF-α and IL-1β in N9 cells, resting and LPS-stimulated; type: cell-based, mouse; details: for release of IL-1β and TNF-α under resting conditions: 0.5 to 5 μM; for effect on LPS-induced cytokines (IL-1β, TNF-α) production: LPS 100 ng/mL 24 h
[10] = tested on: rat primary microglial cells; test: LDH release assay in rat primary microglial cells; details: for effect on LPS-induced cell death (LDH release): 0.1 μM, LPS 100 ng/mL 24 h; for effect on cell viability (LDH) under resting conditions: rat primary microglial cells
[11] = tested on: caspase-3; test: Caspase-3 activity in rat primary microglial cells; type: cell-based; details: 0.1 μM, LPS 100 ng/mL 24 h
[12] = tested on: rat primary microglial cells; test: Nitric oxide; type: cell-based; details: for effect on LPS-induced NO production: 0.1 μM, LPS 100 ng/mL 24 h; for effect on NO production under resting conditions: rat primary microglial cells
[13] = In vivo pharmacokinetics in mice; details: for Tmax: male, CD-1, mouse, plasma
[14] = biological target: T1, human FPR2; details: functional antagonism vs WKYMVM
[15] = rat, rat liver microsomes, pH 7.4, half-life

Compound: N#Cc1ccc(C[C@@H](NC(=O)Nc2ccc(F)cc2)C(=O)N2CCCC2)cc1 [(R)-11c, (R)-1-(3-(4-Cyanophenyl)-1-oxo-1-(pyrrolidin-1-yl)propan-2-yl)-3-(4-fluorophenyl)urea]
- cytotoxic effect in the MTT test [1]: did not exert any cytotoxic effects

- less stable than (R)- and (S)-11b, (R)- and (S)-11c, and 2 [2]: 2–3 fold
Compound: N#Cc1ccc(C[C@@H](NC(=O)Nc2ccc(F)cc2)C(=O)N2CCc3ccccc3C2)cc1 [(R)-11f, (R)-1-(3-(4-Cyanophenyl)-1-(3,4-dihydroisoquinolin-2(1H)-yl)-1oxopropan-2-yl)-3-(4-fluorophenyl)urea]

Compound: N#Cc1ccc(C[C@H](NC(=O)Nc2ccc(F)cc2)C(=O)NCC2(c3ccc(F)c(Cl)c3)CC2)cc1 [Compound 2]
- neuronal survival, microglial cell density and plaque load [3]: improved neuronal survival and decreased microglial cell density and plaque load
- release of IL-1β and TNF-α [4]: reduces the release
- release of TNF-α and IL-1β [5]: attenuated the release of TNF-α and IL-1β
- selectivity FPR2 versus FPR1 ([6]; EC50 FPR1 vs EC50 FPR2): almost equipotent at both receptors
- Metabolic stability, % after 30 min incubation [7]: 33^b %
- efflux ratio ER (BA/AB) [8]: 2.6

- Metabolic stability, % after 30 min incubation [2]: 58%
- microsomal CLint at 2 h, 10 µM ([2]; rat, rat liver microsomes): 6.4 µL/min/mg
- half-life at 10 μM [2, 15]: 108 min
Compound: N#Cc1ccc(C[C@@H](NC(=O)Nc2ccc(F)cc2)C(=O)N2CCc3cc(F)ccc32)cc1 [(R)-11i, (R)-1-(3-(4-Cyanophenyl)-1-(5-fluoroindolin-1-yl)-1-oxopropan-2-yl)-3-(4-fluorophenyl)urea]

- Metabolic stability, % after 30 min incubation [2]: 65%
- microsomal CLint at 2 h, 10 µM ([2]; rat, rat liver microsomes): 6.2 µL/min/mg
- increase in FPR2 potency as compared to 2 [6]: equipotent
Compound: N#Cc1ccc(C[C@H](NC(=O)Nc2ccc(F)cc2)C(=O)N2CCCC2)cc1 [(S)-11c, (S)-1-(3-(4-Cyanophenyl)-1-oxo-1-(pyrrolidin-1-yl)propan-2-yl)-3-(4-fluorophenyl)urea]
- cytotoxic effect in the MTT test [1]: did not exert any cytotoxic effects

Compound: N#Cc1ccc(C[C@@H](NC(=O)Nc2ccc(F)cc2)C(=O)N2CCCCC2)cc1 [(R)-11b, (R)-1-(3-(4-Cyanophenyl)-1-oxo-1-(piperidin-1-yl)propan-2-yl)-3-(4-fluorophenyl)urea]
- cytotoxic effect in the MTT test [1]: did not exert any cytotoxic effects

Compound: N#Cc1ccc(C[C@H](NC(=O)Nc2ccc(F)cc2)C(=O)N2CCc3ccccc32)cc1 [(S)-11e, (S)-1-(3-(4-Cyanophenyl)-1-(indolin-1-yl)-1-oxopropan-2-yl)-3-(4-fluorophenyl)urea]
- release of IL-1β and TNF-α under resting conditions [9]: did not induce the release
- effect on LPS-induced cytokines (IL-1β, TNF-α) production [9]: effectively decrease LPS-induced cytokines production
- effect on LPS-induced cell death (LDH release) [10]: effectively blocked LPS-induced cell death
- effect on cell viability (LDH) under resting conditions [10]: did not induce any effect
- microsomal CLint at 2 h, 10 µM ([2]; rat, rat liver microsomes): 33 µL/min/mg
- half-life at 2 h, 10 µM [2, 15]: 21 min
- less stable than (R)- and (S)-11b, (R)- and (S)-11c, and 2 [2]: 2–3 fold
- effect on LPS-induced activation of caspase-3 [11]: significantly reduced this activation
- effect on LPS-induced NO production [12]: effectively blocked
- effect on NO production under resting conditions [12]: did not induce any effect

- microsomal CLint at 2 h, 10 µM ([2]; rat, rat liver microsomes): 4.4 µL/min/mg
- half-life at 2 h, 10 µM [2, 15]: 157 min
- increase in FPR2 potency as compared to 2 [6]: 20 fold
Compound: N#Cc1ccc(C[C@H](NC(=O)Nc2ccc(F)cc2)C(=O)NC2CCCCNC2=O)cc1 (stereo partly drawn) [(S)-11a, (2S)-3-(4-Cyanophenyl)-2-(3-(4-fluorophenyl)ureido)-N-(2-oxoazepan-3-yl)propenamide]
- release of IL-1β and TNF-α under resting conditions [9]: did not induce the release
- effect on LPS-induced cytokines (IL-1β, TNF-α) production [9]: effectively decrease LPS-induced cytokines production
- cytotoxic effect in the MTT test [1]: did not exert any cytotoxic effects

- loss of FPR2 potency versus the non-substituted counterpart ([6]; 11h vs 11b): 20 fold
Compound: N#Cc1ccc(C[C@H](NC(=O)Nc2ccc(F)cc2)C(=O)N2CCC(F)(F)CC2)cc1 [(S)-11h, (S)-1-(3-(4-Cyanophenyl)-1-(4,4-difluoropiperidin-1-yl)-1-oxopropan-2-yl)-3-(4-fluorophenyl)urea]
- cytotoxic effect in the MTT test [1]: did not exert any cytotoxic effects

Compound: N#Cc1ccc(C[C@H](NC(=O)Nc2ccc(F)cc2)C(=O)N2CCc3ccc(F)cc32)cc1 [(S)-11l, (S)-1-(3-(4-Cyanophenyl)-1-(6-fluoroindolin-1-yl)-1-oxopropan-2-yl)-3-(4-fluorophenyl)urea]
- release of IL-1β and TNF-α under resting conditions [9]: did not induce the release
- effect on LPS-induced cytokines (IL-1β, TNF-α) production [9]: effectively decrease LPS-induced cytokines production
- effect on LPS-induced cell death (LDH release) [10]: effectively blocked LPS-induced cell death
- effect on cell viability (LDH) under resting conditions [10]: did not induce any effect
- Metabolic stability, % after 30 min incubation [2]: 33%
- Tmax ([13]; ip, 10 mg/kg): 30 min
- Tmax ([13]; iv, 1 mg/kg): 5 min
- blood-brain barrier permeation ([13]; mice, i.p. 10 mg/kg): able to permeate the blood–brain barrier and to accumulate in the brain
- time until which the compound was detectable in plasma ([13]; mice, i.v. 1 mg/kg): 4 h
- effect on LPS-induced activation of caspase-3 [11]: significantly reduced this activation
- effect on LPS-induced NO production [12]: effectively blocked
- effect on NO production under resting conditions [12]: did not induce any effect

- microsomal CLint at 2 h, 10 µM ([2]; rat, rat liver microsomes): 5.5 µL/min/mg
- half-life at 2 h, 10 µM [2, 15]: 120 min
Compound: N#Cc1ccc(C[C@@H](NC(=O)Nc2ccc(F)cc2)C(=O)NC2CCCCNC2=O)cc1 (stereo partly drawn) [(R)-11a, (2R)-3-(4-Cyanophenyl)-2-(3-(4-fluorophenyl)ureido)-N-(2-oxoazepan-3-yl)propenamide]
- cytotoxic effect in the MTT test [1]: did not exert any cytotoxic effects

- less stable than (R)- and (S)-11b, (R)- and (S)-11c, and 2 [2]: 2–3 fold
Compound: N#Cc1ccc(C[C@@H](NC(=O)Nc2ccc(F)cc2)C(=O)N2Cc3ccccc3C2)cc1 [(R)-11d, (R)-1-(3-(4-Cyanophenyl)-1-(isoindolin-2-yl)-1-oxopropan-2-yl)-3-(4-fluorophenyl)urea]

- microsomal CLint at 2 h, 10 µM ([2]; rat, rat liver microsomes): 24.7 µL/min/mg
- half-life at 2 h, 10 µM [2, 15]: 28 min
- less stable than (R)- and (S)-11b, (R)- and (S)-11c, and 2 [2]: 2–3 fold
Compound: N#Cc1ccc(C[C@H](NC(=O)Nc2ccc(F)cc2)C(=O)N2Cc3ccccc3C2)cc1 [(S)-11d, (S)-1-(3-(4-Cyanophenyl)-1-(isoindolin-2-yl)-1-oxopropan-2-yl)-3-(4-fluorophenyl)urea]

- Metabolic stability, % after 30 min incubation [2]: 34%
- microsomal CLint at 2 h, 10 µM ([2]; rat, rat liver microsomes): 13.9 µL/min/mg
- increase in FPR2 potency as compared to 2 [6]: 4 fold
Compound: N#Cc1ccc(C[C@H](NC(=O)Nc2ccc(F)cc2)C(=O)N2CCCCC2)cc1 [(S)-11b, (S)-1-(3-(4-Cyanophenyl)-1-oxo-1-(piperidin-1-yl)propan-2-yl)-3-(4-fluorophenyl)urea]
- cytotoxic effect in the MTT test [1]: did not exert any cytotoxic effects

- less stable than (R)- and (S)-11b, (R)- and (S)-11c, and 2 [2]: 2–3 fold
- IC50 at FPR2, range in words [14]: nanomolar range
Compound: N#Cc1ccc(C[C@H](NC(=O)Nc2ccc(F)cc2)C(=O)N2CCc3ccccc3C2)cc1 [(S)-11f, (S)-1-(3-(4-Cyanophenyl)-1-(3,4-dihydroisoquinolin-2(1H)-yl)-1oxopropan-2-yl)-3-(4-fluorophenyl)urea]

- less stable than (R)- and (S)-11b, (R)- and (S)-11c, and 2 [2]: 2–3 fold
Compound: N#Cc1ccc(C[C@H](NC(=O)Nc2ccc(F)cc2)C(=O)N2CCCc3ccccc32)cc1 [(S)-11g, (S)-1-(3-(4-Cyanophenyl)-1-(3,4-dihydroquinolin-1(2H)-yl)-1-oxopropan-2-yl)-3-(4-fluorophenyl)urea]

- microsomal CLint at 2 h, 10 µM ([2]; rat, rat liver microsomes): 23.3 µL/min/mg
- half-life at 2 h, 10 µM [2, 15]: 30 min
Compound: N#Cc1ccc(C[C@@H](NC(=O)Nc2ccc(F)cc2)C(=O)N2CCc3ccc(F)cc32)cc1 [(R)-11l, (R)-1-(3-(4-Cyanophenyl)-1-(6-fluoroindolin-1-yl)-1-oxopropan-2-yl)-3-(4-fluorophenyl)urea]

- microsomal CLint at 2 h, 10 µM ([2]; rat, rat liver microsomes): 4.1 µL/min/mg
Compound: N#Cc1ccc(C[C@H](NC(=O)Nc2ccc(F)cc2)C(=O)N2Cc3ccc(F)cc3C2)cc1 [(S)-11j, (S)-1-(3-(4-Cyanophenyl)-1-(5-fluoroisoindolin-2-yl)-1-oxopropan-2-yl)-3-(4-fluorophenyl)urea]

- less stable than (R)- and (S)-11b, (R)- and (S)-11c, and 2 [2]: 2–3 fold
Compound: N#Cc1ccc(C[C@@H](NC(=O)Nc2ccc(F)cc2)C(=O)N2CCCc3ccccc32)cc1 [(R)-11g, (R)-1-(3-(4-Cyanophenyl)-1-(3,4-dihydroquinolin-1(2H)-yl)-1-oxopropan-2-yl)-3-(4-fluorophenyl)urea]

- less stable than (R)- and (S)-11b, (R)- and (S)-11c, and 2 [2]: 2–3 fold
Compound: N#Cc1ccc(C[C@@H](NC(=O)Nc2ccc(F)cc2)C(=O)N2CCc3ccccc32)cc1 [(R)-11e, (R)-1-(3-(4-Cyanophenyl)-1-(indolin-1-yl)-1-oxopropan-2-yl)-3-(4-fluorophenyl)urea]
